This note sets out measurements from paper PMC6269071, “New Quinoxaline Derivatives as Potential MT1 and MT2 Receptor Ligands” (Molecules, 2012).

SMILES strings stand for the structures. Where only a bound is given, the exact number is not on record here.

Assay [1] has as its target T1, human melatonin MT1 receptor (Homo sapiens, UniProt P48039).
T1 construct: expressed in transfected cells; host or cells: HEK or CHO cells, stably transfected; membrane preparations
Description: 2-[125I]Iodomelatonin competitive binding, MT1. Conditions: 2-[125I]Iodomelatonin radioligand; membranes of HEK or CHO cells; mean of at least three experiments; read-out: MT1 Ki (µM) ± SEM. How it is done:
(§1) The binding affinity of the newly synthesized quinoxalines for MT1 and MT2 receptors was tested through competitive binding experiments using 2-[^125I]Iodomelatonin as radioligand.
(§2) Grown at confluence at 37 °C ([…]/5% CO2), they were harvested in PBS containing EDTA 2 mM and centrifuged at 1,000 g for 5 min (4 °C). The resulting pellet was suspended in Tris 5 mM (pH 7.5), containing EDTA 2 mM and homogenized using a Kinematica polytron. The homogenate was then centrifuged (95,000 g, 30 min, 4 °C) and the resulting pellet suspended in 75 mM Tris (pH 7.5), 12.5 mM MgCl2 and 2 mM EDTA. Aliquots of membrane preparations were stored at −80 °C until use.
(§3) 2-[^125I]Iodomelatonin binding assay conditions are essentially as previously described. Briefly, binding is initiated by the addition of membrane preparations from stable transfected HEK or CHO cells diluted in binding buffer (50 mM Tris-HCl buffer, pH 7.4, containing 5 mM MgCl2) to 2-[^125I]Iodomelatonin (25 or 200 pM for MT1 and MT2 receptors, respectively, expressed in HEK cells or 20 pM for MT1 and MT2 receptors expressed in CHO cells) and the tested drug. […] After 120 min of incubation at 37 °C, the reaction was stopped by rapid filtration through GF/B filters presoaked in 0.5% (v/v) polyethylenimine. Filters were washed three times with 1 mL of ice-cold 50 mM Tris-HCl buffer, pH 7.4. Data from dose-response curves (seven concentrations in duplicate) were analyzed using the program PRISM (Graph Pad Software Inc., San Diego, CA, USA) to yield IC50 (inhibitory concentration 50). Results were expressed as Ki using the Cheng and Prusoff equation: Ki = IC50/[1 + (L/KD)], where [L] is the concentration of radioligand used in the assay and KD, the dissociation constant of the radioligand characterizing the membrane preparation.

The target of assay [2] is T2, human melatonin MT2 receptor (Homo sapiens, UniProt P49286).
T2 construct: expressed in transfected cells; host or cells: HEK or CHO cells, stably transfected; membrane preparations
T2 sequence (P49286 1-362): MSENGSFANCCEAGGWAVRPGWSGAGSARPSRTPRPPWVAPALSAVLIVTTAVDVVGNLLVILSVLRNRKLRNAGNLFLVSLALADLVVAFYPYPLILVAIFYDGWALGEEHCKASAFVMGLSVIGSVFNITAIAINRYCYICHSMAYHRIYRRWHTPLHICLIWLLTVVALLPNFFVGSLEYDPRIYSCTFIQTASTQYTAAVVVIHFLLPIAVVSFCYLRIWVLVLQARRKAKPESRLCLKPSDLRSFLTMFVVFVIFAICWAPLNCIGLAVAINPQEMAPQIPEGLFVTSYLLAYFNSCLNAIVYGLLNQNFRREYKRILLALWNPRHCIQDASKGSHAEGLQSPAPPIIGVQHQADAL
Description: 2-[125I]Iodomelatonin competitive binding, MT2. Conditions: for Ki: 2-[125I]Iodomelatonin radioligand, membranes of HEK or CHO cells, mean of at least three experiments, read-out: MT2 Ki (µM) ± SEM. How it is done:
as §1, §2, §3

Assay [3] deals with T3, MT2 receptor (CHO-MT2 membranes) (Homo sapiens, UniProt P49286).
T3 construct: expressed in transfected cells; host or cells: CHO cells, transfected; membranes
T3 sequence (P49286 1-362): T2 sequence (P49286 1-362)
Description: [35S]GTPγS binding assay, MT2. Type of assay: biochemical. The note with it: for functional profile at MT2 / EC50: [35S]GTPγS binding; for EC50: CHO membranes, read-out: MT2 EC50 ± SEM. As for the experimental part:
as §2
[^35S]GTPγS binding assay was performed according to published methodology. Briefly, membranes from transfected CHO cells expressing MT1 and MT2 receptor subtypes and compounds were diluted in binding buffer (20 mM HEPES, pH 7.4, 100 mM NaCl, 3 μM GDP, 3 mM MgCl2, and 20 μg/mL saponin). Incubation was started by the addition of 0.2 nM [^35S]GTPγS to membranes (20 μg/mL) and drugs, and further followed for 1h at room temperature.
On the technique in general: GTPγS resists hydrolysis and so accumulates on activated G proteins.

T1 sequence (P48039 whole entry): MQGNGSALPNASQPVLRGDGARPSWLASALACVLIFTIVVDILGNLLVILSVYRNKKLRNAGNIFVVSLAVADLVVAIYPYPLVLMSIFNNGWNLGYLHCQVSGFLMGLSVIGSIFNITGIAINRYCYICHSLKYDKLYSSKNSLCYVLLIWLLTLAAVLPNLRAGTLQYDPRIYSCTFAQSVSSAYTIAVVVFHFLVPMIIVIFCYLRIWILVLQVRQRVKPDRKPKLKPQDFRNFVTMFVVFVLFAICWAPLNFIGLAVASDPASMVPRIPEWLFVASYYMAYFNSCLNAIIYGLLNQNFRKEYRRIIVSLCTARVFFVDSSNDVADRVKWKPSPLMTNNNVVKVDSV

Turning to `COc1nc2ccccc2nc1CNC(C)=O` [Compound 3a, N-(3-Methoxyquinoxalin-2-ylmethyl)-acetamide], the inhibition constant Ki in assay [1] is 2.98 ± 0.36 µM; in assay [2], 0.88 ± 0.3 µM.
Taken in the same sequence, the figures for `CCC(=O)NCc1nc2ccccc2nc1OC` [Compound 3b, N-(3-Methoxyquinoxalin-2-ylmethyl)-propionamide] were 2.6 ± 0.23 µM and 0.66 ± 0.01 µM.
Taken in the same sequence, the figures for `CCCC(=O)NCc1nc2ccccc2nc1OC` [Compound 3c, N-(3-Methoxyquinoxalin-2-ylmethyl)-butyramide] were 0.75 ± 0.36 µM and 1.1 ± 0.03 µM.
The like results for `COc1nc2ccccc2nc1CNC(=O)C(C)C` [Compound 3d, N-(3-Methoxyquinoxalin-2-ylmethyl)-isobutyramide] were, in that order, 1.23 ± 0.32 µM and 0.47 ± 0.02 µM.
As to `COc1nc2ccccc2nc1CNC(=O)c1ccccc1` [Compound 3e, N-(3-Methoxy-quinoxalin-2-ylmethyl)-benzamide], the Ki in assay [1] and in assay [2] was over 1000 µM each time.
Turning to `CCNC(=O)NCc1nc2ccccc2nc1OC` [Compound 3f, Ethyl-3-(3-methoxyquinoxalin-2-ylmethyl)urea], the inhibitory constant (Ki) in assay [1] was over 1000 µM; in assay [2], 0.4 ± 0.13 µM.
Taken in the same sequence, the figures for `CCCNC(=O)NCc1nc2ccccc2nc1OC` [Compound 3g, 1-(3-Methoxyquinoxalin-2-ylmethyl)-3-propylurea] were over 1000 µM and 0.44 µM.
Taken in the same sequence, the figures for `COc1nc2ccccc2nc1CNC(=O)NC(C)C` [Compound 3h, 1-Isopropyl-3-(3-methoxyquinoxalin-2-ylmethyl)urea] were over 1000 µM and over 1000 µM.
`COc1nc2ccccc2nc1CNC(=O)Nc1ccccc1` [Compound 3i, 1-(3-Methoxyquinoxalin-2-ylmethyl)-3-phenyl-urea]: the Ki in assay [1] and in assay [2] was over 1000 µM in each case.
Turning to `COc1nc2ccc(NC(C)=O)cc2nc1OC` [Compound 6a, N-(2,3-Dimethoxyquinoxalin-6-yl)acetamide], in assay [1], the inhibition constant (Ki) worked out at 20 ± 1.82 µM. For the same compound, the Ki in assay [2] turned out to be 0.08 µM. Further, in assay [2] (ratio of binding affinities MT1 vs MT2), the MT2/MT1 selectivity ratio worked out at 250. Besides, in assay [3], the “functional profile at MT2” value is on record as “antagonist” and the concentration for a half-maximal effect (EC50) is over 10 µM.
As to `CCC(=O)Nc1ccc2nc(OC)c(OC)nc2c1` [Compound 6b, N-(2,3-Dimethoxyquinoxalin-6-yl)propionamide], the Ki in assay [1] is 17.6 ± 7.81 µM; in assay [2] it was 4.36 ± 1.22 µM.
With `CCCC(=O)Nc1ccc2nc(OC)c(OC)nc2c1` [Compound 6c, N-(2,3-Dimethoxyquinoxalin-6-yl)butyramide], the inhibition constant (Ki) in assay [1] came out at 11.5 ± 2.8 µM. For the same compound, in assay [2], the inhibitory constant (Ki) came to 1.35 ± 0.31 µM. In addition, in assay [3], the “functional profile at MT2” value is on record as “full agonist” and the concentration for a half-maximal effect (EC50) stood at 1.3 ± 0.26 µM. Also, the maximal effect (Emax) in assay [3] (read-out: MT2 Emax ± SEM (%)) was 84 ± 9.5%.
Turning to `COc1nc2ccc(NC(=O)C(C)C)cc2nc1OC` [Compound 6d, N-(2,3-Dimethoxyquinoxalin-6-yl)isobutyramide], the inhibitory constant (Ki) stood at 3.4 ± 1.37 µM in assay [1] and 10.5 ± 2.96 µM in assay [2].
As for `COc1nc2ccc(NC(=O)c3ccccc3)cc2nc1OC` [Compound 6e, N-(2,3-Dimethoxyquinoxalin-6-yl)benzamide], the inhibition constant Ki in assay [1] and in assay [2] was over 1000 µM in each case.
Consider `CCNC(=O)Nc1ccc2nc(OC)c(OC)nc2c1` [Compound 6f, 1-(2,3-Dimethoxyquinoxalin-6-yl)-3-ethylurea], for which the inhibition constant (Ki) in assay [1] came to 3.41 ± 1.89 µM; in assay [2], 28.8 µM.
Taken in the same sequence, the figures for `CCCNC(=O)Nc1ccc2nc(OC)c(OC)nc2c1` [Compound 6g, 1-(2,3-Dimethoxyquinoxalin-6-yl)-3-propylurea] were 1.63 ± 0.44 µM and 0.489 ± 0.07 µM.
As for `COc1nc2ccc(NC(=O)NC(C)C)cc2nc1OC` [Compound 6h, 1-(2,3-Dimethoxyquinoxalin-6-yl)-3-isopropylurea], the Ki in assay [1] and in assay [2] was over 1000 µM in each case.
Regarding `COc1nc2ccc(NC(=O)Nc3ccccc3)cc2nc1OC` [Compound 6i, 1-(2,3-Dimethoxyquinoxalin-6-yl)-3-phenylurea], the Ki in assay [1] and in assay [2] was over 1000 µM each time.
`COc1ccc2ncc(CNC(C)=O)nc2c1` [Compound 10a, N-[(7-Methoxyquinoxalin-2-yl)methyl]acetamide]: the Ki in assay [1] and in assay [2] was over 1000 µM in each case.
As for `CCC(=O)NCc1cnc2ccc(OC)cc2n1` [Compound 10b, N-[(7-Methoxyquinoxalin-2-yl)methyl]propionamide], the Ki in assay [1] is over 1000 µM; in assay [2] it was 0.34 ± 0.15 µM.
The like results for `CCCC(=O)NCc1cnc2ccc(OC)cc2n1` [Compound 10c, N-[(7-Methoxyquinoxalin-2-yl)methyl]butyramide] were, in that order, 0.21 ± 0.11 µM and 0.1 ± 0.01 µM.
On to `COc1ccc2ncc(CNC(=O)C(C)C)nc2c1` [Compound 10d, N-[(7-Methoxyquinoxalin-2-yl)methyl]isobutyramide], for which the inhibition constant (Ki) in assay [1] came to 0.32 ± 0.04 µM; in assay [2], 0.16 µM.
The like results for `COc1ccc2ncc(CNC(=O)c3ccccc3)nc2c1` [Compound 10e, N-[(7-Methoxyquinoxalin-2-yl)methyl]benzamide] were, in that order, over 1000 µM and over 1000 µM.

As usually defined, the Ki is the dissociation constant of the complex between target and ligand, obtained from inhibition or displacement. In general, EC50 refers to the concentration at which the effect is half-maximal. The term Emax denotes the size of the effect at its maximum, as opposed to the concentration needed.
